{
  "source": "patent US5705185A",
  "about": "“Transdermal delivery of estradiol and process for manufacturing said device” (priority 1996, dated 1998)",
  "key": {"[1]": {"tested_on": "enzymatic degradation from estradiol to estrone in human skin", "test": "inhibition of the estradiol metabolism in human skin", "details": "for % Estradiol Metabolized (E1 *100/E1 + E2): 10% PPG; for Inhibition %: 10% PPG versus control; for Estradiol / Estrone: saturated estradiol in saline + 10% PPG, human skin without stratum corneum, n=3; for % estrone formed (percent of estradiol conversion to estrone): n = 4"}, "[2]": {"tested_on": "17-β-hydroxysteroid dehydrogenase", "test": "purified 17-β-hydroxysteroid dehydrogenase assay, absorbance at 340nm (NADH)", "type": "biochemical", "details": "propylene glycol 10% in volume", "protocol": "Another experimentation in this field was carried out using purified 17-β-hydroxysteroid dehydrogenase, 17-β-estradiol as a substrate and NAD^+ as a cofactor in the control tubes, in sample tubes 10% in volume of propyleneglycol was added. The continuous monitoring of the increase in the absorbance at 340nm generated by the appearance of NADH was the method used. […] Therefore the inhibition of the conversion is no mediated by a denaturalization process of the enzyme, therefore we postulated that the process of inhibition was governed by competition for NAD^+."}, "[3]": {"test": "saturation of estradiol in the coating layer", "details": "bad appearance, diminished adhesive properties"}, "[4]": {"test": "in vitro permeation through mouse skin in diffusion chamber", "type": "in vitro ADME, Swiss mice", "details": "n = 4", "text": "[…]. The techniques of this permeation studies is described afterwards.\nFurthermore, \"in vitro\" permeation experiments with abdominal mouse skin and human skin were made using the diffusion chamber that is schematically shown in longitudinal section in FIG. 1.\nThe diffusion chamber illustrated in FIG. 1 comprises a body having front and rear tubular sections 1 and 2 having respective annular end flanges 3 and 4 by which the sections 1 and 2 are joined together. A sample of skin 5, with attached estradiol delivery device D to be tested facing the rear tubular section 2, is clamped between the flanges 3 and 4 by means of a pinch clamp 6.\nThe tubular section 1 has an internal chamber 7 with an opening 8 furnished with a glass stopper 9. The tubular section 1 has also a jacket 10 through which warm water can be circulated to maintain the contents of the chamber 7 at the desired temperature. The chamber 7 contains a magnetic bar stirrer 11 which is rotatable by means of a magnetic field applied externally means (not shown) to enable the contents of the chamber 7 to be stirred.\nThe tubular section 2 has a chamber 12 with an opening 13 furnished with a glass stopper 14.\nIn the assay, the skin of Swiss mice, shaved 72 hours before the experiments, was employed. Also used was human skin obtained from human skin samples (remnants of plastic surgery) which have been eliminated the adipose tissue by scissors, and then was cut to 500 microns by a dermatome.\n[…]. Each experiment was started by loading chamber 7 with 5.5 ml of a receptor solution of sodium lauryl sulfate (0.5%), starting the stirrer 11 and taking samples at pre determined periods of time and the subsequent determination of permeated estradiol (by HPLC)."}},
  "data": [
    {"compound": "CC(O)CO", "note": "(centres unmarked) [Propylene glycol, propylene glycol]", "values": [
      {"measurement": "% Estradiol Metabolized (E1 *100/E1 + E2)", "setting": "[1]; Exp. 1", "result": 7.4, "unit": "%"},
      {"measurement": "Inhibition %", "setting": "[1]; Exp. 1", "result": 66.0, "unit": "%"},
      {"measurement": "Estradiol", "setting": "[1]; Exp. 1", "result": 3.51, "unit": "nmol/mL"},
      {"measurement": "Estrone", "setting": "[1]; Exp. 1", "result": 0.27, "unit": "nmol/mL"},
      {"measurement": "% Estradiol Metabolized (E1 *100/E1 + E2)", "setting": "[1]; Exp. 2", "result": 6.55, "unit": "%"},
      {"measurement": "Inhibition %", "setting": "[1]; Exp. 2", "result": 57.2, "unit": "%"},
      {"measurement": "Estradiol", "setting": "[1]; Exp. 2", "result": 2.71, "unit": "nmol/mL"},
      {"measurement": "Estrone", "setting": "[1]; Exp. 2", "result": 0.19, "unit": "nmol/mL"},
      {"measurement": "propyleneglycol concentration at which enzymatic conversion of estradiol to estrone is minimized", "setting": "[1]; FIG. 4C", "result": 10, "unit": "% wt"},
      {"measurement": "% estrone formed (percent of estradiol conversion to estrone)", "setting": "[1]; PG 0.25%", "result": 37.9, "unit": "%"},
      {"measurement": "% estrone formed (percent of estradiol conversion to estrone)", "setting": "[1]; PG 0.5%", "result": 33.6, "unit": "%"},
      {"measurement": "% estrone formed (percent of estradiol conversion to estrone)", "setting": "[1]; PG 1.5%", "result": 26.8, "unit": "%"},
      {"measurement": "% estrone formed (percent of estradiol conversion to estrone)", "setting": "[1]; PG 3%", "result": 20.6, "unit": "%"},
      {"measurement": "% estrone formed (percent of estradiol conversion to estrone)", "setting": "[1]; PG 5%", "result": 16.1, "unit": "%"},
      {"measurement": "% estrone formed (percent of estradiol conversion to estrone)", "setting": "[1]; PG 10%", "result": 9.2, "unit": "%"},
      {"measurement": "inhibition of enzymatic degradation of estradiol to estrone", "setting": "[1]; tests conducted by the applicant", "result": "inhibits the enzymatic mechanism that causes degradation of estradiol to estrone"},
      {"measurement": "increase in the absorbance at 340nm (NADH)", "setting": "[2]; 0 min", "result": 0},
      {"measurement": "effect on purified enzyme activity versus control", "setting": "[2]; 17-β-estradiol substrate, NAD+ cofactor", "result": "No differences"},
      {"measurement": "increase in the absorbance at 340nm (NADH)", "setting": "[2]; 1 min", "result": 15},
      {"measurement": "increase in the absorbance at 340nm (NADH)", "setting": "[2]; 2 min", "result": 30},
      {"measurement": "increase in the absorbance at 340nm (NADH)", "setting": "[2]; 3 min", "result": 47},
      {"measurement": "increase in the absorbance at 340nm (NADH)", "setting": "[2]; 4 min", "result": 60},
      {"measurement": "increase in the absorbance at 340nm (NADH)", "setting": "[2]; 5 min", "result": 72},
      {"measurement": "increase in the absorbance at 340nm (NADH)", "setting": "[2]; 6 min", "result": 95},
      {"measurement": "increase in the absorbance at 340nm (NADH)", "setting": "[2]; 7 min", "result": 105},
      {"measurement": "increase in the absorbance at 340nm (NADH)", "setting": "[2]; 8 min", "result": 113},
      {"measurement": "increase in the absorbance at 340nm (NADH)", "setting": "[2]; 9 min", "result": 120},
      {"measurement": "increase in the absorbance at 340nm (NADH)", "setting": "[2]; 10 min", "result": 125},
      {"measurement": "increase in the absorbance at 340nm (NADH)", "setting": "[2]; 11 min", "result": 128},
      {"measurement": "increase in the absorbance at 340nm (NADH)", "setting": "[2]; 12 min", "result": 130}
    ]},
    {"compound": "C[C@]12CC[C@@H]3c4ccc(O)cc4CC[C@H]3[C@@H]1CC[C@@H]2O", "note": "[Estradiol, estradiol]", "values": [
      {"measurement": "concentration above which estradiol precipitates in the polymeric matrix", "setting": "[3]", "result": "above 2.1 wt %"},
      {"measurement": "transformation of estradiol in contact with the enzymes of the skin", "setting": "[1]; permeation through skin", "result": "enzymatically oxidazed to estrone"},
      {"measurement": "Flux through mouse skin at 24h", "setting": "[4]; estradiol concentration 1 wt % in coating layer", "result": "1.8 ± 0.29", "unit": "μg/cm^2 *h"},
      {"measurement": "Flux through mouse skin at 24h", "setting": "[4]; estradiol concentration 1.5 wt % in coating layer", "result": "2.2 ± 0.25", "unit": "μg/cm^2 *h"},
      {"measurement": "Flux through mouse skin at 24h", "setting": "[4]; estradiol concentration 1.75 wt % in coating layer", "result": "2.8 ± 0.33", "unit": "μg/cm^2 *h"},
      {"measurement": "Flux through mouse skin at 24h", "setting": "[4]; estradiol concentration 1.8 wt % in coating layer", "result": "3.28 ± 0.41", "unit": "μg/cm^2 *h"},
      {"measurement": "Flux through mouse skin at 24h", "setting": "[4]; estradiol concentration 2 wt % in coating layer", "result": "3.31 ± 0.45", "unit": "μg/cm^2 *h"},
      {"measurement": "Flux through mouse skin at 24h", "setting": "[4]; estradiol concentration 2.5 wt % in coating layer", "result": "3.39 ± 0.37", "unit": "μg/cm^2 *h"}
    ]}
  ]
}
